Blank lines part the entries; values can stand above or below the molecule they belong to.
Tests used:
KCC2 promoter = experiment: KCC2-LUC luciferase primary screen in primary cortical neurons; format: cell-based, mouse; conditions: rank score, 100 nM, 48 h
Protocol: Cytosine arabinoside ([…]) was added to cultures on the second day after seeding [2 d in vitro (DIV)] to inhibit the proliferation of non-neuronal cells. Cell suspension was plated at a density of 1×10^6 cells/ml onto 24-well tissue-culture dishes coated with poly-d-lysine.
LUC activity was then determined for each compound. Culture supernatant was removed and cells were lysed with 150 μl lysis buffer (Targeting Systems CA, USA cat. CLR1). LUC activity was measured with a RedLuciferase Assay kit (Targeting Systems cat. FLAR) according to the manufacturer's instructions. A Veritas microplate luminometer was used to measure luminescence; for each treatment triplicates of 40 μl cell lysates (from each 24-well tissue-culture dish) were used and 25 μl substrate was injected per well. […] Relative Light units (RLU) for each treatment was derived from Light Units (compound treatment)/vehicle treatment (0.5% DMSO).
The primary screen encompassed three levels of LUC measurements. […] Each compound was ranked based on composite scores from primary and secondary screening.

KCC2 mRNA = experiment: Secondary screen: KCC2 RT-qPCR in primary mouse neurons; format: cell-based; conditions: rank score
Protocol: (§1) The primary screen encompassed three levels of LUC measurements. The first level of screening yielded a total of 137 compounds with cut-off RLU>125% LUC activity. These 137 compounds were subject to second round of screening, which was carried out in duplicate independent assays to yield the top 103 compounds sorted for highest RLU. The 103 compounds were then subjected to a third round of screening carried out in duplicate independent assays to yield the top 40 compounds which were again ranked. The best 22 of these 40 compounds (ranked for highest RLU activity) were subjected to secondary screening: Cultured neurons were treated with the 22 compounds; RT-qPCR and Clomeleon imaging methodologies (Yeo et al., 2009, J Neurosci 29:14652-14662) were used to determine effects of compounds on KCC2 mRNA expression and [Cl—]i, respectively. Each compound was ranked based on composite scores from primary and secondary screening.
Total RNA was isolated from cultured cell samples using Directzol RNA miniprep kit (ZymoResearch). The protocol includes DNAse digestion to exclude genomic DNA from preparations. Total RNA (1 μg) was reverse transcribed using oligo primers (dT) and SuperScriptIII first-strand synthesis kit (Invitrogen). Gene expression was assessed by quantitative real-time PCR using 2×SYBR Green Master Mix (Qiagen) and a three-step cycling protocol (anneal at 60° C./elongate at 72° C., denature at 95° C.). Specificity of primers was verified by dissociation/melting curve for the amplicons when using SYBR Green as a detector. All reactions were performed in triplicates. The amount of target messenger RNA (mRNA) in the experimental group relative to that in the control was determined from the resulting fluorescence and threshold values (Ct) using the ΔΔCt method. βIII-tubulin was used as housekeeping gene.
oligodT-initiated reverse transcription of 1 μg total RNA, DNA-se treated, was subjected to RT-qPCR using primers specific for KCC2 for rat and KCC2 for human sequences, normalized for neuronal βIII-tubulin, as previously described (Yeo et al., 2009, J Neurosci 29:14652-14662). For cultured neurons, total RNA was extracted from pelleted cells, and for spinal cord tissue it was extracted from microdissected lumbar spinal cord dorsal horn.
(§2) To identify KCC2 gene expression enhancing compounds, cultured primary cortical neurons were cultured from KCC2-luciferase(LUC)-knockin (KCC2-LUCki) mice (Liedtke et al., 2013, Small 9:1066-1075; Yeo et al., 2013, Proc Natl Acad Sci USA 110:4315-4320) and used LUC metrics as readout for activity of the proximal KCC2 promoter (2.5 kB (Yeo et al., 2009, J Neurosci 29:14652-14662)), which drives LUC in this mouse transgenic line. A Z′ factor of 0.94 was obtained. This strategy will not select for long-range enhancers of KCC2 gene expression that act outside the 2.5 kB core KCC2 promoter. 1057 compounds, contained in two NCI libraries (FIG. 1), related to inhibition of growth of malignantly transformed cells were screened. Iterative screening followed by measurements of KCC2 mRNA (RT-qPCR) and intracellular chloride ([Cl—]i), using clomeleon chloride indicator protein (Kuner and Augustine, 2000, Neuron 27:447-459; Yeo et al., 2009, J Neurosci 29:14652-14662), led to decreasing numbers of confirmed and re-confirmed hits, and 4 “winner” compounds were selected (FIG. 1 and Table 3).

[1] = tested on: intracellular chloride ([Cl—]i); experiment: Secondary screen: Clomeleon chloride imaging in primary mouse neurons; format: cell-based; design: chloride reduction (%): concentration or dose not given beside the values; conditions: for Clomeleon Score (duplicates): rank score; for chloride reduction (%): from the [Cl—]i pair of the same line; for chloride [Cl—]i mM: value after compound, control => treated
Protocol: as §1
(§3) Chloride imaging of primary cultured cortical neurons was conducted as previously described (Kuner and Augustine, 2000, Neuron 27:447-459; Liedtke et al., 2013, Small 9:1066-1075; Yeo et al., 2009, J Neurosci 29:14652-14662). A Clomeleon expression plasmid was transfected into primary cortical neurons by electroporation (Amaxa Nucleofector Device). Transfected neurons were verified by yellow fluorescent protein (YFP) fluorescence, and ratiometric images (excitation at λ=434 nm, dual emission at λ=485 and 535 nm; for resting chloride, six stable frames at […] were captured, which were averaged) were acquired using RATIOTOOL program. Calibration of Clomeleon signals (535 nm/485 nm emission ratio) was performed by using tributyltin-nigericin to establish a standard curve, which was then normalized for measured intraneuronal pH to take into account the pH sensitivity of Clomeleon.
as §2

KCC2 = experiment: Composite score from primary and secondary screening; format: cell-based, mouse; conditions: for Aggregate Score / Top two hits: Mechanistic Compounds; for Aggregate Score / Total Score: sum of the three scores
Protocol: as §1, §2

nerve injury pain = experiment: Nerve constriction injury (PSNL) pain model, mechanical withdrawal; format: in vivo, mouse; conditions: day 7; 3 h, 4 h, 5 h after i.t injection
Protocol: For pain-related behavior, mechanical allodynia was assessed with von Frey filaments (Ugo Basile, Italy). The mice were placed on a 5×5-mm wire-mesh grid floor in individual compartments to avoid visual stimulation and allowed to adapt for 0.5 h prior to the von Frey test. The von Frey filament was then applied to the middle of the plantar surface of the hind paw with 5 g force. The withdrawal responses following the hind paw stimulation were measured at least three times, and the mechanical allodynia, which was defined as an increase in the number of withdrawal responses to the stimulation, was compared.
Thus, in vivo, KP functions as an analgesic when administered systemically in injury-related pain models.
Next, whether the analgesic effects of KP were mediated centrally at the spinal cord level was assessed.
Mechanical withdrawal was measured thresholds after nerve constriction injury (PSNL) (FIG. 12B and FIG. 12C). […] Thus, δ-cat(S276A) spinal transgenesis via AAV9 is sufficient to evoke analgesia after nerve constriction injury, to lesser degree also with δ-cat(WT). Importantly, δ-cat(S276A) spinal transgenesis was accompanied by increased expression of KCC2 in the SCDH. […] Moreover, our discovery points toward a genetically-encoded approach that can be developed for translation into clinical use as an alternative or complement to KP-related small molecules.

neuronal [Cl—]i = experiment: Clomeleon chloride imaging in rat primary cortical neurons; format: cell-based; conditions: VU0240551 2.5 μM add-on; both vehicle-treated and KP-treated
Protocol: as §3

SMILES: CC1(C)C(O)OC(O)C1(C)C (stereo not drawn) [3,3,4,4-tetramethyloxolane-2,5-diol, 3,3,4,4-tetramethyl-oxolane-2,5-diol]
- Luciferase Score (triplicates) (KCC2 promoter; Mechanistic Compounds): 6

SMILES: Cc1cc(-c2nc3ccccc3s2)ccc1N [4-(1,3-Benzothiazol-2-yl)-2-methylaniline]
- Luciferase Score (triplicates) (KCC2 promoter; Mechanistic Compounds): 4
- RT-QPCR Score (triplicates) (KCC2 mRNA; Mechanistic Compounds): 5
- Clomeleon Score (duplicates) ([1]; Mechanistic Compounds): 4
- chloride reduction (%) [1]: 46.3%
- chloride [Cl—]i mM [1]: 82 => 38 mM
- Aggregate Score (KCC2): 13

SMILES: CC(O)CCC(=O)c1ccoc1 (stereo not drawn) [4-Ipomeanol]
- Luciferase Score (triplicates) (KCC2 promoter; Mechanistic Compounds): 3
- RT-QPCR Score (triplicates) (KCC2 mRNA; Mechanistic Compounds): 2
- Clomeleon Score (duplicates) ([1]; Mechanistic Compounds): 3
- chloride reduction (%) [1]: 43.2%
- chloride [Cl—]i mM [1]: 74 => 32 mM
- Aggregate Score (KCC2): 8

SMILES: N=C1N=CN=C2C([C@@H]3O[C@H](CO)[C@@H](O)[C@H]3O)=CN=C12 [9-Deazaadenosine]
- Luciferase Score (triplicates) (KCC2 promoter; Mechanistic Compounds): 2
- RT-QPCR Score (triplicates) (KCC2 mRNA; Mechanistic Compounds): 4
- Clomeleon Score (duplicates) ([1]; Mechanistic Compounds): 5
- chloride reduction (%) [1]: 48.8%
- chloride [Cl—]i mM [1]: 82 => 40 mM
- Aggregate Score (KCC2): 11

SMILES: CC(=O)/C(=C\c1cccc([N+](=O)[O-])c1)C(=O)Nc1ccccc1C [(2E)-N-(2-methylphenyl)-2-[(3-nitrophenyl)methylidene]-3-oxobutanamide]
- Luciferase Score (triplicates) (KCC2 promoter; Mechanistic Compounds): 5

SMILES: CC(=O)Nc1ccc(-c2nc3ccccc3s2)cc1 [NSC33006, N-[4-(1,3-benzothiazol-2-yl)phenyl]acetamide]
- Luciferase Score (triplicates) (KCC2 promoter; Mechanistic Compounds): 2
- RT-QPCR Score (triplicates) (KCC2 mRNA; Mechanistic Compounds): 1
- Clomeleon Score (duplicates) ([1]; Mechanistic Compounds): 2
- chloride reduction (%) [1]: 37.8%
- chloride [Cl—]i mM [1]: 74 => 28 mM
- Top two hits (KCC2): winner
- Aggregate Score (KCC2): 5

- Luciferase Score (triplicates) (KCC2 promoter; Mechanistic Compounds): 1
SMILES: Cc1ccc(NC(=O)c2cccc([N+](=O)[O-])c2O)c(C)c1 [NSC79456, n-(2,4-Dimethylphenyl)-2-hydroxy-3-nitrobenzamide]
- RT-QPCR Score (triplicates) (KCC2 mRNA; Mechanistic Compounds): 3
- Clomeleon Score (duplicates) ([1]; Mechanistic Compounds): 1
- chloride reduction (%) [1]: 32.4%
- chloride [Cl—]i mM [1]: 74 => 24 mM
- Top two hits (KCC2): winner
- Aggregate Score (KCC2): 5

SMILES: CC(=O)C1CCCC(=O)C=CC(=O)O1 (stereo not drawn) [NSC180515, 2-Acetyl-2,3,4,5-tetrahydrooxonine-6,9-dione]
- Luciferase Score (triplicates) (KCC2 promoter; Natural Compounds): 4
- RT-QPCR Score (triplicates) (KCC2 mRNA; Natural Compounds): 1
- Clomeleon Score (duplicates) ([1]; Natural Compounds): 1
- chloride reduction (%) [1]: 32%
- chloride [Cl—]i mM [1]: 68 => 22 mM
- Top 2 hits (KCC2; Natural Compounds): winner
- Total Score (KCC2; Natural Compounds): 6

SMILES: NC(=O)c1cn(C2OC(CO)C(O)C2O)c2ncnc(N)c12 (stereo not drawn) [Sauzivamycin]
- Luciferase Score (triplicates) (KCC2 promoter; Mechanistic Compounds): 6

SMILES: Cc1csc(NC(=O)CSc2ccc(-c3ccccc3)nn2)n1 [VU0240551]
- effect of i.t co-application with KP on KP analgesia (nerve injury pain): eliminates the central analgesic effects of KP
- [Cl—]i with add-on KCC2-transport blocker (neuronal [Cl—]i): ≥ 120 mM

SMILES: COc1ccc(C[C@H]2NC[C@H](O)[C@H]2OC(C)=O)cc1 [anisomycine]
- Luciferase Score (triplicates) (KCC2 promoter; Natural Compounds): 3
- RT-QPCR Score (triplicates) (KCC2 mRNA; Natural Compounds): 4
- Clomeleon Score (duplicates) ([1]; Natural Compounds): 6
- chloride reduction (%) [1]: 57.3%
- chloride [Cl—]i mM [1]: 75 => 43 mM
- Total Score (KCC2; Natural Compounds): 13

SMILES: C[C@@]12C(=O)OC(=O)[C@]1(C)[C@H]1CC[C@@H]2O1 [cantharidine]
- Luciferase Score (triplicates) (KCC2 promoter; Natural Compounds): 6
- RT-QPCR Score (triplicates) (KCC2 mRNA; Natural Compounds): 6
- Clomeleon Score (duplicates) ([1]; Natural Compounds): 3
- chloride reduction (%) [1]: 48.5%
- chloride [Cl—]i mM [1]: 68 => 33 mM
- Total Score (KCC2; Natural Compounds): 15

SMILES: COc1cc2c(c(OC)c1OC)-c1ccc(OC)c(=O)cc1[C@@H](NC(C)=O)CC2 [colchicine]
- Luciferase Score (triplicates) (KCC2 promoter; Natural Compounds): 10

- Luciferase Score (triplicates) (KCC2 promoter; Natural Compounds): 1
SMILES: CC1(C)CCC[C@]2(C)C3=C(CC[C@@H]12)C(=O)OC3 [confertifoline]
- RT-QPCR Score (triplicates) (KCC2 mRNA; Natural Compounds): 5
- Clomeleon Score (duplicates) ([1]; Natural Compounds): 5
- chloride reduction (%) [1]: 56%
- chloride [Cl—]i mM [1]: 75 => 42 mM
- Total Score (KCC2; Natural Compounds): 11

SMILES: CC(=O)N1CCN(c2ccc(OCC3COC(Cn4ccnc4)(c4ccc(Cl)cc4Cl)O3)cc2)CC1 (stereo not drawn) [ketoconazole]
- Luciferase Score (triplicates) (KCC2 promoter; Natural Compounds): 9

SMILES: COc1cc([C@@H]2c3cc4c(cc3[C@H](O[C@@H]3O[C@@H]5COC(c6ccccc6)O[C@H]5[C@H](O)[C@H]3O)[C@H]3COC(=O)[C@H]23)OCO4)cc(OC)c1OC (stereo partly drawn) [proresidor]
- Luciferase Score (triplicates) (KCC2 promoter; Natural Compounds): 9

SMILES: COc1cc2c3c(c4ccc(OC)c(OC)c4c2cc1OC)CN1CCC[C@H]1C3 [tylocrebrine]
- Luciferase Score (triplicates) (KCC2 promoter; Natural Compounds): 5
- RT-QPCR Score (triplicates) (KCC2 mRNA; Natural Compounds): 3
- Clomeleon Score (duplicates) ([1]; Natural Compounds): 4
- chloride reduction (%) [1]: 52%
- chloride [Cl—]i mM [1]: 75 => 39 mM
- Total Score (KCC2; Natural Compounds): 12

SMILES: COc1ccc(C(=O)O[C@H]2CC[C@@]3(C)[C@@H]4CC[C@H]5[C@]6(O)C[C@H](O)[C@@]7(O)[C@@H](CN8C[C@@H](C)CC[C@H]8[C@@]7(C)O)[C@]6(O)C[C@@]53O[C@]24O)cc1OC [veratridine]
- Luciferase Score (triplicates) (KCC2 promoter; Natural Compounds): 7

Source: patent publication US20220281930A1, “COMPOSITIONS AND METHODS FOR THE TREATMENT OF PATHOLOGICAL PAIN AND ITCH” (DUKE UNIVERSITY, priority 2019, published 2022)
